Data from PubChem BioAssay AID248 (DTP/NCI, 2004).
Where “and” joins values, the source holds several entries; their conditions need not be identical. Equal entries are not always repeated. Toxic doses and inconclusive results are not listed. Rule as the data show it: active = T/C of 150% or more; inactive = T/C below 125%.

System: L1210 leukemia ip in BDF1 mice, survival T/C
Assay: NCI In Vivo Anticancer Drug Screen. Data for tumor model L1210 Leukemia (intraperitoneal) in B6D2F1 (BDF1) mice
Details: endpoint: mean survival time, higher = longer survival
In short: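 Mice bearing the transplanted tumor received compound or vehicle. Survival of the treated group was divided by that of the vehicle-treated control group to give the ratio.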

[1] = dose: 50.0 mg/kg/injection, schedule: Q01DX009 (ip), vehicle: Klucel (hydroxypropylcellulose) (HPC)
[2] = dose: 100.0 mg/kg/injection, schedule: Q04DX003 (ip), vehicle: Klucel (hydroxypropylcellulose) (HPC)
[3] = dose: 100.0 mg/kg/injection, schedule: Q01DX009 (ip), vehicle: Klucel (hydroxypropylcellulose) (HPC)
[4] = dose: 200.0 mg/kg/injection, schedule: Q01DX009 (ip), vehicle: Klucel (hydroxypropylcellulose) (HPC)
[5] = dose: 100.0 mg/kg/injection, schedule: Q04DX002 (ip), vehicle: Klucel (hydroxypropylcellulose) (HPC)
[6] = dose: 200.0 mg/kg/injection, schedule: Q04DX002 (ip), vehicle: Klucel (hydroxypropylcellulose) (HPC)
[7] = dose: 400.0 mg/kg/injection, schedule: Q04DX002 (ip), vehicle: Klucel (hydroxypropylcellulose) (HPC)
[8] = dose: 100.0 mg/kg/injection, schedule: Q01DX001 (ip), vehicle: saline
[9] = dose: 200.0 mg/kg/injection, schedule: Q01DX001 (ip), vehicle: saline
[10] = dose: 400.0 mg/kg/injection, schedule: Q01DX001 (ip), vehicle: saline
[11] = dose: 50.0 mg/kg/injection, schedule: Q01DX001 (ip), vehicle: Klucel (hydroxypropylcellulose) (HPC)
[12] = dose: 100.0 mg/kg/injection, schedule: Q01DX001 (ip), vehicle: Klucel (hydroxypropylcellulose) (HPC)
[13] = dose: 200.0 mg/kg/injection, schedule: Q04DX003 (ip), vehicle: Klucel (hydroxypropylcellulose) (HPC)
[14] = dose: 400.0 mg/kg/injection, schedule: Q04DX003 (ip), vehicle: Klucel (hydroxypropylcellulose) (HPC)

Measured: T/C

CC(C)COC(=O)c1ccc(NC(=O)Nc2ccc(F)cc2)cc1
inactive: dose: 100.0 mg/kg/injection, schedule: Q01DX001 (ip), vehicle: carboxymethylcellulose (CMC) 99 % of control | dose: 100.0 mg/kg/injection, schedule: Q01DX009 (ip), vehicle: carboxymethylcellulose (CMC) 92 % of control and 97 % of control | dose: 100.0 mg/kg/injection, schedule: Q04DX002 (ip), vehicle: carboxymethylcellulose (CMC) 93 % of control and 103 % of control | dose: 100.0 mg/kg/injection, schedule: Q04DX003 (ip), vehicle: carboxymethylcellulose (CMC) 96 % of control | dose: 200.0 mg/kg/injection, schedule: Q01DX001 (ip), vehicle: carboxymethylcellulose (CMC) 87 % of control | dose: 200.0 mg/kg/injection, schedule: Q01DX009 (ip), vehicle: carboxymethylcellulose (CMC) 100 % of control and 90 % of control | dose: 200.0 mg/kg/injection, schedule: Q04DX002 (ip), vehicle: carboxymethylcellulose (CMC) 92 % of control and 91 % of control | dose: 200.0 mg/kg/injection, schedule: Q04DX003 (ip), vehicle: carboxymethylcellulose (CMC) 96 % of control | dose: 400.0 mg/kg/injection, schedule: Q01DX001 (ip), vehicle: carboxymethylcellulose (CMC) 96 % of control | dose: 400.0 mg/kg/injection, schedule: Q01DX009 (ip), vehicle: carboxymethylcellulose (CMC) 100 % of control | dose: 400.0 mg/kg/injection, schedule: Q04DX002 (ip), vehicle: carboxymethylcellulose (CMC) 100 % of control and 102 % of control | dose: 400.0 mg/kg/injection, schedule: Q04DX003 (ip), vehicle: carboxymethylcellulose (CMC) 95 % of control

O=c1[nH]cnc2n[nH]nc12
inactive: dose: 176.0 mg/kg/injection, schedule: Q01DX009 (ip), vehicle: other 113 % of control | dose: 264.0 mg/kg/injection, schedule: Q01DX009 (ip), vehicle: other 117 % of control | dose: 400.0 mg/kg/injection, schedule: Q01DX009 (ip), vehicle: other 124 % of control

CC/C(=C\c1ccccc1)[N+](=O)[O-]
inactive: dose: 25.0 mg/kg/injection, schedule: Q01DX009 (ip), vehicle: Klucel (hydroxypropylcellulose) (HPC) 102 % of control | dose: 25.0 mg/kg/injection, schedule: Q04DX003 (ip), vehicle: Klucel (hydroxypropylcellulose) (HPC) 97 % of control | [1] 98 % of control | dose: 50.0 mg/kg/injection, schedule: Q04DX003 (ip), vehicle: Klucel (hydroxypropylcellulose) (HPC) 90 % of control | [2] 103 % of control

Nc1nc2ccccc2c(Cl)c1Cl
inactive: [1] 86 % of control | [3] 91 % of control | [4] 91 % of control

Cn1cnc2cc(N=Cc3ccc(N(CCCl)CCCl)cc3F)ccc21
inactive: [5] 104 % of control | [6] 101 % of control | [7] 97 % of control

Oc1ccccc1C=NCCN=Cc1ccccc1O.[Ni]
inactive: dose: 88.0 mg/kg/injection, schedule: Q01DX001 (ip), vehicle: other 109 % of control | dose: 100.0 mg/kg/injection, schedule: Q01DX001 (ip), vehicle: other 100 % of control | dose: 133.0 mg/kg/injection, schedule: Q01DX001 (ip), vehicle: other 107 % of control | dose: 200.0 mg/kg/injection, schedule: Q01DX001 (ip), vehicle: other 108 % of control

[CH3][Ga]([CH3])[O]c1ccccc1C=O
inactive: dose: 1.5 mg/kg/injection, schedule: Q01DX009 (ip), vehicle: DMSO 97 % of control | dose: 1.5 mg/kg/injection, schedule: Q04DX003 (ip), vehicle: DMSO 107 % of control | dose: 3.0 mg/kg/injection, schedule: Q01DX009 (ip), vehicle: DMSO 97 % of control | dose: 3.0 mg/kg/injection, schedule: Q04DX003 (ip), vehicle: DMSO 94 % of control | dose: 6.0 mg/kg/injection, schedule: Q01DX009 (ip), vehicle: DMSO 108 % of control | dose: 6.0 mg/kg/injection, schedule: Q04DX003 (ip), vehicle: DMSO 102 % of control

CC(=O)NC1C(O)OC(COC(c2ccccc2)(c2ccccc2)c2ccccc2)C(O)C1O (stereo unspecified)
inactive: [8] 91 % of control | [9] 93 % of control | [10] 104 % of control

Cc1cccc(C)c1NC(=O)Oc1ccc(F)cc1Cl
inactive: [3] 110 % of control | [4] 97 % of control

Cc1ccc(S(=O)(=O)N2CCCC2CO)cc1 (stereo unspecified)
inactive: [1] 97 % of control | [3] 101 % of control | [4] 101 % of control

COc1ccc2c(c1)CCC1C2CCC2C(O)CCC(=O)C21 (stereo unspecified)
inactive: [11] 102 % of control | [12] 102 % of control | dose: 200.0 mg/kg/injection, schedule: Q01DX001 (ip), vehicle: Klucel (hydroxypropylcellulose) (HPC) 98 % of control

Cn1cnc([N+](=O)[O-])c1/N=C/c1ccccc1
inactive: dose: 50.0 mg/kg/injection, schedule: Q01DX005 (ip), vehicle: saline 98 % of control | dose: 100.0 mg/kg/injection, schedule: Q01DX005 (ip), vehicle: saline 100 % of control | dose: 200.0 mg/kg/injection, schedule: Q01DX005 (ip), vehicle: saline 104 % of control

C=CCSc1ccnc(N)n1
inactive: [11] 103 % of control | [12] 101 % of control

CCN(CC)Cc1cc(Nc2ncnc3[nH]c(C)c(C)c23)ccc1O
inactive: dose: 12.5 mg/kg/injection, schedule: Q04DX002 (ip), vehicle: saline with Tween-80 98 % of control | dose: 25.0 mg/kg/injection, schedule: Q04DX002 (ip), vehicle: saline with Tween-80 94 % of control | dose: 50.0 mg/kg/injection, schedule: Q04DX002 (ip), vehicle: saline with Tween-80 88 % of control

C[N+](C)(C)C1(Cc2ccc(Br)cc2)c2ccccc2-c2ccccc21
inactive: dose: 25.0 mg/kg/injection, schedule: Q04DX003 (ip), vehicle: saline with Tween-80 88 % of control

O=c1[nH]ncn1-c1ccccc1
inactive: [2] 96 % of control | [13] 92 % of control | [14] 91 % of control

O=C(CCCC(=O)NNC(=S)Nc1ccccc1Cl)NNC(=S)Nc1ccccc1Cl
inactive: dose: 50.0 mg/kg/injection, schedule: Q01DX001 (ip), vehicle: saline 96 % of control | [8] 96 % of control | [9] 93 % of control | [10] 93 % of control

CC[N+](C)(CC)Cc1cc(C(C)=O)c(C)o1
inactive: dose: 12.5 mg/kg/injection, schedule: Q01DX009 (ip), vehicle: saline with Tween-80 90 % of control | dose: 25.0 mg/kg/injection, schedule: Q01DX009 (ip), vehicle: saline with Tween-80 95 % of control | dose: 50.0 mg/kg/injection, schedule: Q01DX009 (ip), vehicle: saline with Tween-80 93 % of control

O=C(Oc1c(Cl)cc(S(=O)(=O)F)cc1Cl)c1ccccc1Cl
inactive: [5] 92 % of control | [6] 89 % of control | [7] 89 % of control

CCN(CC)COC(C)=O
inactive: [8] 103 % of control | [9] 106 % of control | [10] 106 % of control

COc1ccc2c(c1)CCc1cnoc1-2
inactive: [2] 93 % of control | [13] 95 % of control | [14] 95 % of control

CCOC(=O)NCc1ccc(Cl)c(C(=O)O)c1
inactive: [8] 105 % of control | dose: 100.0 mg/kg/injection, schedule: Q04DX003 (ip), vehicle: saline 88 % of control | [9] 94 % of control | dose: 200.0 mg/kg/injection, schedule: Q04DX003 (ip), vehicle: saline 101 % of control | [10] 93 % of control | dose: 400.0 mg/kg/injection, schedule: Q04DX003 (ip), vehicle: saline 93 % of control
